In US20090275070A1, “Compounds and Methods of Identifying, Synthesizing, Optimizing and Profiling Protein Modulators” (priority 2005, published 2009):

Key:
[1] = system: wild type non-transformed Ba/F3 cells; test: phenoresponse-based cellular assay, wild type Ba/F3 control cells; design: species or system murine; details: Mus musculus; concentration inhibiting growth of the cell line by 50% in the cellular assay; wt BaF3 control cells; read-out: wt BaF3 (IC50 activity category)
[2] = target: T1, Ba/F3 cells expressing p210Bcr-Abl-T315I (Homo sapiens, UniProt P00519, T315I, cells depend on it); test: phenoresponse-based cellular assay (cell count and viability), Ba/F3 T315I test cells; design: species or system murine; details: concentration inhibiting growth of the cell line by 50% in the cellular assay, read-out: T315I (IC50 activity category);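 also: cells counted by automated microcell imaging, viability scored by trypan blue exclusion, phenoresponse judged against parental Ba/F3 and Ba/F3 carrying wild-type p210Bcr-Abl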
T1 construct: fused on or other part: P11274 (Breakpoint cluster region protein)

Row | Compound | IC50 [1] [µM] | GI50 [2] [µM]
1 | Cc1ccccc1/C=N/Nc1ncc(F)c(N2CCOCC2)n1 | ≥ 10 | > 10
2 | Fc1cnc(N/N=C/c2ccc(Nc3cccc(C(F)(F)F)c3)cn2)nc1-c1cncc(-c2ccccc2)c1 | < 1 | < 1
3 | Oc1ccc(Br)cc1/C=N/Nc1ncc(F)c(N2CCOCC2)n1 | < 1 | < 1
4 | Fc1cnc(N/N=C/c2ccc(Nc3cccc(C(F)(F)F)c3)cn2)nc1NCCN1CCOCC1 | < 0.3 | < 0.3
5 | Fc1cnc(N/N=C/c2ccc(Nc3ccc(N4CCOCC4)cc3)cn2)nc1N1CCOCC1 | < 1 | < 1
6 | Fc1cnc(N/N=C/c2ccc(-c3cccc(C(F)(F)F)c3)cn2)nc1N1CCOCC1 | < 1 | < 1
7 | Fc1cnc(N/N=C/c2ccc(Nc3cccc(C(F)(F)F)c3)cn2)nc1-c1cncc(C2CC2)c1 | < 10 | < 10
8 | O=C(NNc1ncc(F)c(N2CCOCC2)n1)c1ccc(Nc2cccc(C(F)(F)F)c2)cn1 | < 1 | < 1
9 | Cc1cc(Nc2ccc(/C=N/Nc3ncc(F)c(N4CCOCC4)n3)nc2)cc(N2CCNCC2)c1 | < 10 | < 1
10 | Fc1cnc(N/N=C/c2ccc(Nc3cccc(C(F)(F)F)c3)cn2)nc1NCc1ccccc1 | < 0.3 | < 0.3
11 | CN(/N=C/c1ccc(Nc2cccc(C(F)(F)F)c2)cn1)c1ncc(F)c(N2CCOCC2)n1 | < 0.3 | < 0.3
12 | Oc1c(Cl)cc(Br)cc1/C=N/Nc1ncc(F)c(N2CCOCC2)n1 | < 1 | < 0.3
13 | C/C(=N\Nc1ncc(F)c(N2CCOCC2)n1)c1ccc(Nc2cccc(C(F)(F)F)c2)cn1 | < 0.3 | < 0.3
14 | O=C(Nc1cccc(C(F)(F)F)c1)c1ccc(/C=N/Nc2ncc(F)c(N3CCOCC3)n2)nc1 | < 10 | < 1
15 | Fc1cnc(N/N=C/c2ccc(Nc3cccc(C(F)(F)F)c3)cn2)nc1N1CCOCC1 | < 0.3 | < 0.3
16 | Fc1cnc(N/N=C/c2ccc(Nc3cccc(C(F)(F)F)c3)cn2)nc1NCC1CC1 | < 0.3 | < 0.3
17 | Oc1cccc(-c2ccc(Nc3ccc(/C=N/Nc4ncc(F)c(N5CCOCC5)n4)nc3)cc2)c1 | < 0.3 | < 0.3
18 | CC(C(=O)O)c1ccc(Nc2ccc(/C=N/Nc3ncc(F)c(N4CCOCC4)n3)nc2)cc1 (stereo not drawn) | ≥ 10 | > 10

Row | Compound | IC50 [1] [µM] | GI50 [2] [µM]
19 | Fc1cnc(N/N=C/c2ccc(Nc3cccc(-n4ccnc4)c3)cn2)nc1N1CCOCC1 | < 1 | < 1
20 | CN(C)c1cc(O)cc(Nc2ccc(/C=N/Nc3ncc(F)c(N4CCOCC4)n3)nc2)c1 | < 10 | < 1
21 | O=C(Nc1cccc(C(F)(F)F)c1)c1cccc(/C=N/Nc2ncc(F)c(N3CCOCC3)n2)n1 | ≥ 10 | > 10
22 | Fc1cnc(N/N=C/c2ccccc2)nc1N1CCOCC1 | ≥ 10 | > 10
23 | Fc1cnc(N/N=C/c2ccc(Nc3ccc(-c4ccccn4)c(Cl)c3)cn2)nc1N1CCOCC1 | < 1 | < 1
24 | Cc1ccc(/C=N/Nc2ncc(F)c(N3CCOCC3)n2)cc1 | ≥ 10 | > 10
25 | Oc1ccc(-c2ccc(Nc3ccc(/C=N/Nc4ncc(F)c(N5CCOCC5)n4)nc3)cc2C(F)(F)F)cc1 | < 0.3 | < 0.3
26 | Cc1cccc(Cl)c1-c1ccc(Nc2ccc(/C=N/Nc3ncc(F)c(N4CCOCC4)n3)nc2)cc1 | < 0.3 | < 0.3
27 | Fc1cnc(N/N=C/c2ccc(Nc3ccc(-c4cccnc4)cc3)cn2)nc1N1CCOCC1 | < 1 | < 0.3
28 | Oc1cccc(-c2cccc(Nc3ccc(/C=N/Nc4ncc(F)c(N5CCOCC5)n4)nc3)c2)c1 | < 1 | < 0.3
29 | Fc1cnc(N/N=C/c2ccccn2)nc1N1CCOCC1 | < 1 | < 1
30 | O=C(C/C=N/Nc1ncc(F)c(N2CCOCC2)n1)Nc1cccc(C(F)(F)F)c1 | ≥ 10 | > 10
31 | Oc1ccccc1/C=N/Nc1ncc(F)c(N2CCOCC2)n1 | < 10 | < 10
32 | Oc1c(Cl)cc(-c2cccc(C(F)(F)F)c2)cc1/C=N/Nc1ncc(F)c(N2CCOCC2)n1 | < 1 | < 0.3
33 | O=C(Nc1cccc(C(F)(F)F)c1)c1cc(Cl)c(O)c(/C=N\Nc2ncc(F)c(N3CCOCC3)n2)c1 | < 1 | < 1
34 | Cc1cccc(Cl)c1NC(=O)C/C=N/Nc1ncc(F)c(N2CCOCC2)n1 | ≥ 10 | > 10
35 | Cc1cc(Nc2cccc(C(F)(F)F)c2)ccc1/C=N/Nc1ncc(F)c(N2CCOCC2)n1 | ≥ 10 | > 10
36 | Oc1cccc(Nc2cccc(Nc3ccc(/C=N/Nc4ncc(F)c(N5CCOCC5)n4)nc3)c2)c1 | < 1 | < 1
